From publication PMC9181126, “Design, Synthesis, Molecular Docking Analysis and Biological Evaluations of 4-[(Quinolin-4-yl)amino]benzamide Derivatives as Novel Anti-Influenza Virus Agents” (International Journal of Molecular Sciences, 2022)

Legend:
[1] = system: influenza virus A/WSN/33 (H1N1); assay: Plaque inhibition assay in MDCK cells; assay type: cell-based; details: for IC50: MDCK cells; for inhibition at 100 µM: MDCK, concentration 100 µM, read-out: Plaque Inhibition Assay (A/WSN/33, H1N1) Inhibition Rate
A/PR/8 (H1N1) = assay: Plaque inhibition assay in MDCK cells; assay type: cell-based; details: Influenza A virus
A/HK/68 (H3N2) = assay: Plaque inhibition assay in MDCK cells; assay type: cell-based; details: Influenza A virus
influenza B virus = assay: Plaque inhibition assay in MDCK cells; assay type: cell-based
in vitro [2] = assay type: cell-based, canine; details: dog
In short: (§1)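 Cells were seeded and compound medium added after 48 h, then incubated 72 h at 37 °C, 5% CO2. Viability was measured by MTT (4 h), then solubilization and absorbance at 620 nm after a further 3 h. DMSO-only wells were taken as 100% viable.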

MDCK cells = assay: in vitro; assay type: cell-based, canine; details: dog, 72 h
In short: as §1

in vitro [3] = assay type: cell-based; details: human
In short: as §1

HEK293T cells = assay: in vitro; assay type: cell-based; details: human, 72 h
In short: as §1

[4] = system: influenza virus A/WSN/33 (H1N1); assay: microbe, parasite or virus in culture; assay type: cell-based; details: MDCK, 72 h; for inhibition at 12.5 µM / inhibition at 25 µM / inhibition at 50 µM / inhibition at 100 µM: H1N1|WSN, read-out: Antiviral activity in CPE assay; for EC50: read-out: Cytopathic Effect Assay (A/WSN/33, H1N1) EC50
[5] = target: ribonucleoprotein (RNP) of influenza virus (Influenza A virus, UniProt P15659); assay: cell-based; details: HEK-293T; concentration 100 µM; read-out: RNP Reconstitution Assay Inhibition Rate
A/WSN/33, H1N1 = system: A/WSN/33, H1N1; parameters: method as in PMID 25333287; details: cited from earlier work

| Structure (SMILES) | IC50 [1] | CC50 at 72 h (in vitro [2]) | MDCK cells survival rate (MDCK cells; 12.5 µmol·L−1) | MDCK cells survival rate (MDCK cells; 25 µmol·L−1) | MDCK cells survival rate (MDCK cells; 50 µmol·L−1) | MDCK cells survival rate (MDCK cells; 100 µmol·L−1) | CC50 at 72 h (in vitro [3]) | HEK293T cells survival rate (HEK293T cells; 3.125 µmol·L−1) | HEK293T cells survival rate (HEK293T cells; 6.25 µmol·L−1) | HEK293T cells survival rate (HEK293T cells; 12.5 µmol·L−1) | HEK293T cells survival rate (HEK293T cells; 25 µmol·L−1) | HEK293T cells survival rate (HEK293T cells; 50 µmol·L−1) | HEK293T cells survival rate (HEK293T cells; 100 µmol·L−1) | inhibition at 12.5 µM [4] | inhibition at 25 µM [4] | inhibition at 50 µM [4] | inhibition at 100 µM [4] | EC50 [4] | inhibition at 100 µM [1] | inhibition at 100 µM [5] | further results |
| --- | --- | --- | --- | --- | --- | --- | --- | --- | --- | --- | --- | --- | --- | --- | --- | --- | --- | --- | --- | --- | --- |
| NC12CC3CC(CC(C3)C1)C2 [amantadine, reference compound] | > 100 µM | – | – | – | – | – | – | – | – | – | – | – | – | – | – | – | – | – | – | – | IC50 (A/PR/8 (H1N1)): 64.2 ± 7.21 µM; IC50 (A/HK/68 (H3N2)): 2.22 ± 0.57 µM; IC50 (influenza B virus): > 100 µM |
| COc1ccccc1OCCNC(=O)c1ccc(Nc2ccnc3cc(C(F)(F)F)ccc23)cc1 [Compound G07, N-[2-(2-Methoxyphenoxy)ethyl]-4-{[7-(trifluoromethyl)quinolin-4-yl]amino}benzamide] | 0.23 ± 0.15 µM | > 100 µM | 140.55±9.82% | 115.87±11.06% | 256.24±17.89% | 115.75±5.12% | > 100 µM | 106.60±2.14% | 97.91±1.23% | 91.58±3.34% | 87.01±2.19% | 90.17±2.90% | 81.39±7.21% | 61.4 ± 6.86% | 78.2 ± 8.28% | 107 ± 2.43% | 112 ± 4.3% | 11.4 ± 1.89 µM | 95.9% | 80.7% | IC50 (A/PR/8 (H1N1)): 11.4 ± 2.38 µM; IC50 (A/HK/68 (H3N2)): 7.51 ± 1.76 µM; IC50 (influenza B virus): 11 ± 1.16 µM |
| CCN(CC)Cc1cc(Nc2ccnc3cc(Cl)ccc23)ccc1O [amodiaquine] | – | – | – | – | – | – | – | – | – | – | – | – | – | – | – | – | – | – | – | – | EC50 (A/WSN/33, H1N1): 6.3 µM |
| COc1ccccc1OCCNC(=O)c1ccc(Nc2ccnc3cc(OC(F)(F)F)ccc23)cc1 [Compound G22, N-[2-(2-Methoxyphenoxy)ethyl]-4-{[7-(trifluoromethoxy)quinolin-4-yl]amino}benzamide] | – | > 100 µM | 95.78±2.47% | 99.56±3.73% | 104.22±9.18% | 118.12±6.49% | > 100 µM | 117.25±6.52% | 103.91±6.77% | 91.65±2.90% | 89.97±4.08% | 88.83±5.80% | 86.07±5.65% | 112 ± 6.15% | 108 ± 8.75% | 106 ± 5.94% | 97.4 ± 10.2% | < 10 µM | 20% | 43.9% | melting point: 229.5 to 230.7 °C |
| COc1ccccc1OCCNC(=O)c1ccc(Nc2ccnc3cc([N+](=O)[O-])ccc23)cc1 [Compound G23, N-[2-(2-Methoxyphenoxy)ethyl]-4-[(7-nitroquinolin-4-yl)amino]benzamide] | – | > 100 µM | 101.22±6.39% | 106.22±9.35% | 100.33±3.53% | 91.28±3.45% | > 100 µM | 93.57±3.31% | 96.34±4.31% | 95.29±3.05% | 89.02±3.47% | 96.62±7.74% | 88.11±4.02% | 146 ± 3.38% | 143 ± 6.11% | 119.8 ± 0.68% | 119 ± 7.71% | < 10 µM | 77.9% | 56.6% | melting point: 217 to 218.5 °C |
